Measured values as given in PubChem BioAssay AID192 (DTP/NCI, 2004).
Values joined by “and” are separate entries in the source; they are usually repeats but may differ in a detail not shown here. Equal values may be shown once. Inconclusive results and toxic doses are left out.

System: BDF1 mice, B16 melanoma ip, median survival T/C
Assay: NCI In Vivo Anticancer Drug Screen. Data for tumor model B16 Melanoma (intraperitoneal) in B6D2F1 (BDF1) mice
Settings: endpoint: median survival time, higher = longer survival
In short: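 Vehicle-treated animals serve as the reference (C); treated animals (T) are scored for survival or tumor size after tumor transplantation.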

[1] = dose: 25.0 mg/kg/injection, schedule: Q01DX009 (ip), vehicle: Klucel (hydroxypropylcellulose) (HPC)
[2] = dose: 50.0 mg/kg/injection, schedule: Q01DX009 (ip), vehicle: Klucel (hydroxypropylcellulose) (HPC)
[3] = dose: 100.0 mg/kg/injection, schedule: Q01DX009 (ip), vehicle: Klucel (hydroxypropylcellulose) (HPC)

Compound: O=C1c2ccccc2C(=O)c2c(NCCNCCNCCO)ccc(NCCNCCNCCO)c21
- T/C (dose: 8.0 mg/kg/injection, schedule: Q01DX009 (ip), vehicle: acid diluted with saline): 97 % of control
- T/C (dose: 16.0 mg/kg/injection, schedule: Q01DX009 (ip), vehicle: acid diluted with saline): 101 % of control
- T/C (dose: 32.0 mg/kg/injection, schedule: Q01DX009 (ip), vehicle: acid diluted with saline): 103 % of control
- T/C (dose: 64.0 mg/kg/injection, schedule: Q01DX009 (ip), vehicle: acid diluted with saline): 100 % of control
- T/C (dose: 128.0 mg/kg/injection, schedule: Q01DX009 (ip), vehicle: acid diluted with saline): 98 % of control

Compound: CC(CN=Cc1ccccc1O)N=Cc1ccccc1O (stereo unspecified)
- T/C (dose: 12.5 mg/kg/injection, schedule: Q01DX009 (ip), vehicle: Klucel (hydroxypropylcellulose) (HPC)): 91 % of control
- T/C [1]: 88 % of control
- T/C [2]: 87 % of control
- T/C [3]: 89 % of control

Compound: Cl[C](Cl)(Cl)[Hg][c]1ccccc1
- T/C (dose: 0.19 mg/kg/injection, schedule: Q01DX009 (ip), vehicle: saline): 91 % of control
- T/C (dose: 0.38 mg/kg/injection, schedule: Q01DX009 (ip), vehicle: saline): 92 % of control
- T/C (dose: 1.5 mg/kg/injection, schedule: Q01DX009 (ip), vehicle: saline): 89 % of control

Compound: Nc1c([N+](=O)[O-])ccc2ccccc12
- T/C (dose: 100.0 mg/kg/injection, schedule: Q04DX003 (ip), vehicle: saline with Tween-80): 108 % of control
- T/C (dose: 200.0 mg/kg/injection, schedule: Q04DX003 (ip), vehicle: saline with Tween-80): 91 % of control
- T/C (dose: 400.0 mg/kg/injection, schedule: Q04DX003 (ip), vehicle: saline with Tween-80): 100 % of control

Compound: Nc1ncnc2c1ncn2Cc1ccccc1
- T/C [2]: 89 % of control and 90 % of control
- T/C [3]: 90 % of control and 100 % of control
- T/C (dose: 200.0 mg/kg/injection, schedule: Q01DX009 (ip), vehicle: Klucel (hydroxypropylcellulose) (HPC)): 86 % of control

Compound: CSC1SCC2C(=O)N(C)C(C(C)C)C(=O)OCC(NC(=O)c3cnc4ccccc4n3)C(=O)NC(C)C(=O)N(C)C1C(=O)N(C)C(C(C)C)C(=O)OCC(NC(=O)c1cnc3ccccc3n1)C(=O)NC(C)C(=O)N2C (stereo unspecified)
- T/C (dose: 0.1 micrograms/kg/injection, schedule: Q01DX009 (ip), vehicle: saline with Tween-80): 106 % of control
- T/C (dose: 0.2 micrograms/kg/injection, schedule: Q01DX009 (ip), vehicle: saline with Tween-80): 105 % of control
- T/C (dose: 0.4 micrograms/kg/injection, schedule: Q01DX009 (ip), vehicle: saline with Tween-80): 108 % of control
- T/C (dose: 0.9 micrograms/kg/injection, schedule: Q01DX009 (ip), vehicle: saline with Tween-80): 108 % of control
- T/C (dose: 0.94 micrograms/kg/injection, schedule: Q01DX009 (ip), vehicle: Klucel (hydroxypropylcellulose) (HPC)): 93 % of control
- T/C (dose: 0.94 micrograms/kg/injection, schedule: Q01DX009 (ip), vehicle: clinical formulation): 113 % of control
- T/C (dose: 0.94 micrograms/kg/injection, schedule: Q01DX009 (ip), vehicle: distilled water + alcohol): 118 % of control
- T/C (dose: 1.8 micrograms/kg/injection, schedule: Q01DX009 (ip), vehicle: saline with Tween-80): 151 % of control and 167 % of control
- T/C (dose: 1.88 micrograms/kg/injection, schedule: Q01DX009 (ip), vehicle: Klucel (hydroxypropylcellulose) (HPC)): 88 % of control
- T/C (dose: 1.88 micrograms/kg/injection, schedule: Q01DX009 (ip), vehicle: clinical formulation): 112 % of control
- T/C (dose: 1.88 micrograms/kg/injection, schedule: Q01DX009 (ip), vehicle: distilled water + alcohol): 117 % of control
- T/C (dose: 1.9 micrograms/kg/injection, schedule: Q01DX009 (ip), vehicle: saline): 156 % of control
- T/C (dose: 3.75 micrograms/kg/injection, schedule: Q01DX009 (ip), vehicle: Klucel (hydroxypropylcellulose) (HPC)): 102 % of control
- T/C (dose: 3.75 micrograms/kg/injection, schedule: Q01DX009 (ip), vehicle: distilled water + alcohol): 113 % of control
- T/C (dose: 3.8 micrograms/kg/injection, schedule: Q01DX009 (ip), vehicle: saline): 123 % of control
- T/C (dose: 7.5 micrograms/kg/injection, schedule: Q01DX009 (ip), vehicle: Klucel (hydroxypropylcellulose) (HPC)): 107 % of control
- T/C (dose: 7.5 micrograms/kg/injection, schedule: Q01DX009 (ip), vehicle: distilled water + alcohol): 123 % of control
- T/C (dose: 8.0 micrograms/kg/injection, schedule: Q01DX009 (ip), vehicle: other): 152 % of control and 155 % of control
- T/C (dose: 15.0 micrograms/kg/injection, schedule: Q01DX009 (ip), vehicle: Klucel (hydroxypropylcellulose) (HPC)): 115 % of control
- T/C (dose: 15.0 micrograms/kg/injection, schedule: Q01DX009 (ip), vehicle: clinical formulation): 169 % of control
- T/C (dose: 15.0 micrograms/kg/injection, schedule: Q01DX009 (ip), vehicle: saline): 174 % of control
- T/C (dose: 16.0 micrograms/kg/injection, schedule: Q01DX009 (ip), vehicle: other): 161 % of control
- T/C (dose: 16.0 micrograms/kg/injection, schedule: Q01DX009 (ip), vehicle: saline sonified): 160 % of control and 168 % of control
- T/C (dose: 16.0 micrograms/kg/injection, schedule: Q01DX009 (ip), vehicle: saline): 160 % of control
- T/C (dose: 30.0 micrograms/kg/injection, schedule: Q01DX009 (ip), vehicle: clinical formulation): 168 % of control
- T/C (dose: 30.0 micrograms/kg/injection, schedule: Q01DX009 (ip), vehicle: saline with Tween-80): 88 % of control
- T/C (dose: 30.0 micrograms/kg/injection, schedule: Q01DX009 (ip), vehicle: saline): 183 % of control
- T/C (dose: 32.0 micrograms/kg/injection, schedule: Q01DX009 (ip), vehicle: other): 157 % of control and 158 % of control and 160 % of control
- T/C (dose: 32.0 micrograms/kg/injection, schedule: Q01DX009 (ip), vehicle: saline sonified): 167 % of control and 170 % of control and 189 % of control
- T/C (dose: 32.0 micrograms/kg/injection, schedule: Q01DX009 (ip), vehicle: saline): 165 % of control
- T/C (dose: 32.0 micrograms/kg/injection, schedule: Q04DX003 (ip), vehicle: saline sonified): 156 % of control
- T/C (dose: 60.0 micrograms/kg/injection, schedule: Q01DX009 (ip), vehicle: clinical formulation): 173 % of control
- T/C (dose: 60.0 micrograms/kg/injection, schedule: Q01DX009 (ip), vehicle: distilled water + alcohol): 168 % of control
- T/C (dose: 60.0 micrograms/kg/injection, schedule: Q01DX009 (ip), vehicle: saline): 165 % of control
- T/C (dose: 64.0 micrograms/kg/injection, schedule: Q01DX009 (ip), vehicle: other): 159 % of control and 189 % of control and 215 % of control
- T/C (dose: 64.0 micrograms/kg/injection, schedule: Q01DX009 (ip), vehicle: saline sonified): 165 % of control and 172 % of control
- T/C (dose: 64.0 micrograms/kg/injection, schedule: Q01DX009 (ip), vehicle: saline): 176 % of control
- T/C (dose: 64.0 micrograms/kg/injection, schedule: Q04DX003 (ip), vehicle: saline sonified): 174 % of control
- T/C (dose: 120.0 micrograms/kg/injection, schedule: Q01DX009 (ip), vehicle: Klucel (hydroxypropylcellulose) (HPC)): 154 % of control
- T/C (dose: 120.0 micrograms/kg/injection, schedule: Q01DX009 (ip), vehicle: distilled water + alcohol): 173 % of control
- T/C (dose: 120.0 micrograms/kg/injection, schedule: Q01DX009 (ip), vehicle: saline with Tween-80): 162 % of control and 189 % of control
- T/C (dose: 128.0 micrograms/kg/injection, schedule: Q01DX009 (ip), vehicle: saline sonified): 164 % of control and 188 % of control
- T/C (dose: 128.0 micrograms/kg/injection, schedule: Q01DX009 (ip), vehicle: saline): 166 % of control
- T/C (dose: 128.0 micrograms/kg/injection, schedule: Q04DX003 (ip), vehicle: saline sonified): 165 % of control
- T/C (dose: 192.0 micrograms/kg/injection, schedule: Q04DX003 (ip), vehicle: saline sonified): 180 % of control
- T/C (dose: 240.0 micrograms/kg/injection, schedule: Q01DX009 (ip), vehicle: Klucel (hydroxypropylcellulose) (HPC)): 151 % of control
- T/C (dose: 240.0 micrograms/kg/injection, schedule: Q01DX009 (ip), vehicle: saline with Tween-80): 115 % of control
- T/C (dose: 256.0 micrograms/kg/injection, schedule: Q04DX003 (ip), vehicle: saline sonified): 175 % of control
- T/C (dose: 480.0 micrograms/kg/injection, schedule: Q01DX009 (ip), vehicle: Klucel (hydroxypropylcellulose) (HPC)): 168 % of control

Compound: CCCCCCCCCCCCCCCCCCOCC(COP(=O)([O-])OCC[N+](C)(C)C)OC (stereo unspecified)
- T/C (dose: 3.12 mg/kg/injection, schedule: Q01DX009 (ip), vehicle: saline): 91 % of control
- T/C (dose: 6.25 mg/kg/injection, schedule: Q01DX009 (ip), vehicle: saline): 95 % of control
- T/C (dose: 12.5 mg/kg/injection, schedule: Q01DX009 (ip), vehicle: saline): 92 % of control
- T/C (dose: 25.0 mg/kg/injection, schedule: Q01DX009 (ip), vehicle: saline): 87 % of control

Compound: CCN(CC)C(=S)SSC(=S)N(CC)CC
- T/C (dose: 0.78 mg/kg/injection, schedule: Q01DX009 (ip), vehicle: Klucel (hydroxypropylcellulose) (HPC)): 110 % of control
- T/C (dose: 1.56 mg/kg/injection, schedule: Q01DX009 (ip), vehicle: Klucel (hydroxypropylcellulose) (HPC)): 86 % of control
- T/C (dose: 3.12 mg/kg/injection, schedule: Q01DX009 (ip), vehicle: Klucel (hydroxypropylcellulose) (HPC)): 97 % of control
- T/C (dose: 6.25 mg/kg/injection, schedule: Q01DX009 (ip), vehicle: Klucel (hydroxypropylcellulose) (HPC)): 105 % of control
- T/C [1]: 92 % of control
